The subject of this assay is P388 leukemia ip, CD2F1 mice, survival T/C. The experiment in a line: NCI In Vivo Anticancer Drug Screen. Data for tumor model P388 Leukemia (intraperitoneal) in CD2F1 (CDF1) mice. The following applies: endpoint: median survival time, higher = longer survival. In a few lines: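 Mice carrying the transplanted tumor received test compound or vehicle. Survival was recorded in each group, and the value is the treated-group measurement divided by that of the vehicle-treated control group.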

The mark [1] stands for this setting: dose: 25.0 mg/kg/injection, schedule: Q01DX005 (ip), vehicle: Klucel (hydroxypropylcellulose) (HPC).
Setting [2] is: dose: 50.0 mg/kg/injection, schedule: Q01DX005 (ip), vehicle: Klucel (hydroxypropylcellulose) (HPC).
The mark [3] stands for this setting: dose: 100.0 mg/kg/injection, schedule: Q01DX005 (ip), vehicle: Klucel (hydroxypropylcellulose) (HPC).
Where [4] appears, read: dose: 200.0 mg/kg/injection, schedule: Q01DX005 (ip), vehicle: Klucel (hydroxypropylcellulose) (HPC).
Setting [5] is: dose: 50.0 mg/kg/injection, schedule: Q01DX009 (ip), vehicle: saline with Tween-80.
Where [6] appears, read: dose: 100.0 mg/kg/injection, schedule: Q01DX009 (ip), vehicle: saline with Tween-80.
Where [7] appears, read: dose: 200.0 mg/kg/injection, schedule: Q01DX009 (ip), vehicle: saline with Tween-80.
Setting [8] is: dose: 50.0 mg/kg/injection, schedule: Q01DX005 (ip), vehicle: saline with Tween-80.
Setting [9] is: dose: 100.0 mg/kg/injection, schedule: Q01DX005 (ip), vehicle: saline with Tween-80.
Setting [10] is: dose: 200.0 mg/kg/injection, schedule: Q01DX005 (ip), vehicle: saline with Tween-80.
The mark [11] stands for this setting: dose: 100.0 mg/kg/injection, schedule: Q01DX009 (ip), vehicle: Klucel (hydroxypropylcellulose) (HPC).
Setting [12] is: dose: 200.0 mg/kg/injection, schedule: Q01DX009 (ip), vehicle: Klucel (hydroxypropylcellulose) (HPC).
The mark [13] stands for this setting: dose: 100.0 mg/kg/injection, schedule: Q04DX003 (ip), vehicle: saline with Tween-80.
Where [14] appears, read: dose: 200.0 mg/kg/injection, schedule: Q04DX003 (ip), vehicle: saline with Tween-80.
The mark [15] stands for this setting: dose: 400.0 mg/kg/injection, schedule: Q04DX003 (ip), vehicle: saline with Tween-80.
[16] abbreviates: dose: 6.25 mg/kg/injection, schedule: Q01DX009 (ip), vehicle: saline.
[17] abbreviates: dose: 25.0 mg/kg/injection, schedule: Q01DX009 (ip), vehicle: saline.
Setting [18] is: dose: 50.0 mg/kg/injection, schedule: Q01DX009 (ip), vehicle: Klucel (hydroxypropylcellulose) (HPC).

Where “and” joins values, the source holds several entries; their conditions need not be identical. Identical values can stand only once. Toxic doses and inconclusive results are not listed.

With `CC/C(=N/NS(=O)(=O)c1ccc(C)cc1)C(=O)O`, the T/C under setting [1] is 90 % of control; the T/C under setting [2] is 92 % of control; the T/C under setting [3] is 92 % of control; the T/C under setting [4] was 91 % of control; the T/C (dose: 400.0 mg/kg/injection, schedule: Q01DX005 (ip), vehicle: Klucel (hydroxypropylcellulose) (HPC)) was 88 % of control.
As for `CC(C)(C)OC(=O)NCC(=O)NC(CSC(c1ccccc1)c1ccccc1)C(=O)NCC(=O)O` (configuration not stated), the T/C is 105 % of control under setting [2] and 99 % of control under setting [3].
Regarding `CCC[As](CCC)SC1OC(COC(C)=O)C(OC(C)=O)C(OC(C)=O)C1OC(C)=O` (configuration not stated), the T/C is 117 % of control and 88 % of control under setting [5]; 107 % of control and 92 % of control under setting [6]; 110 % of control and 124 % of control under setting [7].
In the case of `COc1cc(N=Nc2ccc(N=Nc3ccc4cc(S(=O)(=O)O)cc(S(=O)(=O)O)c4c3)c(C)c2)c(C)cc1NC(=O)c1ccc(NC(=O)c2ccc(N)cc2)cc1`, the T/C under setting [1] was 103 % of control and 108 % of control; the T/C under setting [2] is 107 % of control and 111 % of control and 117 % of control; the T/C under setting [3] was 103 % of control and 116 % of control; the T/C under setting [4] was 107 % of control and 112 % of control and 97 % of control.
Consider `CC([NH-])CC(C)[NH-].[Cl][Pt+2][Cl]` (configuration not stated), for which the T/C (dose: 0.78 mg/kg/injection, schedule: Q04DX002 (ip), vehicle: saline with Tween-80) was 119 % of control.
In the case of `N#CCCCCCBr`, the T/C was 98 % of control under setting [5], 100 % of control under setting [6] and 100 % of control under setting [7].
On to `O=C(O)CCCCCCCCCCC1C=CCC1` (configuration not stated), for which the T/C runs as follows: (dose: 100.0 mg/kg/injection, schedule: Q04DX003 (ip), vehicle: saline) 93 % of control; (dose: 200.0 mg/kg/injection, schedule: Q04DX003 (ip), vehicle: saline) 93 % of control; (dose: 400.0 mg/kg/injection, schedule: Q04DX003 (ip), vehicle: saline) 93 % of control.
In the case of `O=C(O)c1ccc(NC(=O)c2ccco2)cc1`, the T/C runs as follows: under setting [5], 88 % of control; under setting [6], 97 % of control; under setting [7], 89 % of control.
Turning to `O=C(O)C(=Cc1c2ccccc2cc2ccccc12)C(=O)O`, the T/C under setting [8] is 95 % of control, the T/C under setting [9] is 99 % of control and the T/C under setting [10] was 114 % of control.
For `CCCCCCCCC(=O)OCCNC(=O)C(C)OC(=O)CCCCCCCC` (configuration not stated), the T/C was 96 % of control under setting [11]; 100 % of control under setting [12]; 98 % of control (dose: 400.0 mg/kg/injection, schedule: Q01DX009 (ip), vehicle: Klucel (hydroxypropylcellulose) (HPC)).
As for `Cc1cc2cccc(Br)c(=O)c2o1`, the T/C is, setting by setting: (dose: 6.25 mg/kg/injection, schedule: Q01DX001 (ip), vehicle: saline with Tween-80) 95 % of control; (dose: 12.5 mg/kg/injection, schedule: Q01DX001 (ip), vehicle: saline with Tween-80) 100 % of control; (dose: 25.0 mg/kg/injection, schedule: Q01DX001 (ip), vehicle: saline with Tween-80) 104 % of control.
On to `COC(=O)c1ccccc1NC1=NS(=O)(=O)c2ccccc2N1C`, for which the T/C under setting [8] was 87 % of control, the T/C under setting [9] is 86 % of control and the T/C under setting [10] is 87 % of control.
Turning to `CCOC(=S)c1cc(C(=S)OCC)cc(C(C)(C)C)c1`, the T/C by setting is: under setting [13], 103 % of control; under setting [14], 108 % of control; under setting [15], 113 % of control.
Take `Cc1cc[n+](C)c(-c2ccccc2)c1`: the T/C is 90 % of control under setting [16]; 104 % of control (dose: 12.5 mg/kg/injection, schedule: Q01DX009 (ip), vehicle: saline); 113 % of control under setting [17].
Regarding `NC(=S)n1nc(-c2ccccc2)c(N=Nc2ccc(O)cc2)c1-c1ccccc1`, the T/C by setting is: under setting [8], 100 % of control; under setting [9], 103 % of control; under setting [10], 98 % of control.
Turning to `COC(=O)C(=O)c1c(-c2ccc(Cl)c(Cl)c2)[nH]c2[nH]n(-c3ccccc3)c(=O)c2c1=O`, the T/C by setting is: (dose: 60.0 mg/kg/injection, schedule: Q01DX005 (ip), vehicle: saline with Tween-80) 94 % of control; (dose: 120.0 mg/kg/injection, schedule: Q01DX005 (ip), vehicle: saline with Tween-80) 88 % of control; (dose: 240.0 mg/kg/injection, schedule: Q01DX005 (ip), vehicle: saline with Tween-80) 88 % of control.
Take `CCn1c2ccccc2c2ccc(N=Cc3ccc(N(C)C)cc3)cc21`: the T/C was 89 % of control under setting [18], 94 % of control under setting [11] and 103 % of control under setting [12].
For the molecule `CC(C1CC/C(=N/NC(N)=O)C1)[N+](=O)[O-]` (configuration not stated), the T/C was 100 % of control (dose: 12.5 mg/kg/injection, schedule: Q01DX009 (ip), vehicle: distilled water + Tween-80); 91 % of control (dose: 25.0 mg/kg/injection, schedule: Q01DX009 (ip), vehicle: distilled water + Tween-80); 90 % of control (dose: 50.0 mg/kg/injection, schedule: Q01DX009 (ip), vehicle: distilled water + Tween-80); 100 % of control (dose: 100.0 mg/kg/injection, schedule: Q01DX009 (ip), vehicle: distilled water + Tween-80); 92 % of control (dose: 200.0 mg/kg/injection, schedule: Q01DX009 (ip), vehicle: distilled water + Tween-80).
Regarding `Nc1ccc(N=Nc2ccc(S(=O)(=O)O)cc2)cc1`, the T/C is 95 % of control under setting [13], 100 % of control under setting [14] and 100 % of control under setting [15].
Take `CCOC(=O)C1(Br)CCCCC1`: the T/C under setting [5] was 109 % of control, the T/C under setting [6] was 111 % of control and the T/C under setting [7] was 103 % of control.
Take `CCCCCCCN1CCS(=O)(=O)CC1`: the T/C is 93 % of control under setting [18], 98 % of control under setting [11] and 97 % of control under setting [12].
As to `O=C1CCCCCCC1C1SCCS1` (configuration not stated), the T/C under setting [5] was 102 % of control, the T/C under setting [6] is 109 % of control and the T/C under setting [7] was 114 % of control.
As to `CS(=O)(=O)CC(=O)c1ccccc1`, the T/C by setting is: (dose: 25.0 mg/kg/injection, schedule: Q01DX009 (ip), vehicle: saline with Tween-80) 101 % of control and 106 % of control; under setting [5], 97 % of control; under setting [6], 111 % of control and 106 % of control; under setting [7], 103 % of control and 111 % of control.
On to `O=[N+]([O-])c1cnc(-c2ccc(F)cc2)n1CCO`, for which the T/C is 100 % of control under setting [5], 105 % of control under setting [6] and 112 % of control under setting [7].
Turning to `CCCCN(CC)CC(CC)Nc1cc(OC)cc2cccnc12` (configuration not stated), the T/C runs as follows: under setting [8], 102 % of control; under setting [9], 95 % of control; under setting [10], 101 % of control.
Take `Clc1cc(Cl)nc(N2CCCCC2)n1`: the T/C reads like this: (dose: 25.0 mg/kg/injection, schedule: Q04DX003 (ip), vehicle: Klucel (hydroxypropylcellulose) (HPC)) 105 % of control; (dose: 50.0 mg/kg/injection, schedule: Q04DX003 (ip), vehicle: Klucel (hydroxypropylcellulose) (HPC)) 102 % of control; (dose: 100.0 mg/kg/injection, schedule: Q04DX003 (ip), vehicle: Klucel (hydroxypropylcellulose) (HPC)) 100 % of control; (dose: 200.0 mg/kg/injection, schedule: Q04DX003 (ip), vehicle: Klucel (hydroxypropylcellulose) (HPC)) 105 % of control.
`O=C(NC(Cc1c[nH]c2ccccc12)C(=O)NC(Cc1ccc(O)cc1)C(=O)O)OCc1ccccc1` (configuration not stated): the T/C is, setting by setting: under setting [8], 101 % of control; under setting [9], 106 % of control; under setting [10], 89 % of control.
In the case of `O=C1/C(=C/c2ccc(Br)cc2)CCc2ccccc21`, the T/C was 105 % of control under setting [18], 111 % of control under setting [11] and 105 % of control under setting [12].
As to `CC(=O)NCc1ccc(N2C(N)=NC(N)=NC2(C)C)cc1`, the T/C runs as follows: (dose: 25.0 mg/kg/injection, schedule: Q04DX002 (ip), vehicle: saline) 100 % of control; (dose: 50.0 mg/kg/injection, schedule: Q04DX002 (ip), vehicle: saline) 116 % of control; (dose: 100.0 mg/kg/injection, schedule: Q04DX002 (ip), vehicle: saline) 100 % of control.
Consider `CC(=O)N1C(=O)CC23c4ccccc4C(=O)N2CCCN13` (configuration not stated), for which the T/C is, setting by setting: under setting [8], 99 % of control; under setting [9], 106 % of control; under setting [10], 99 % of control.
Turning to `CCCS(=O)(=O)Nc1ccc(Nc2c3ccccc3nc3ccccc23)c(OC)c1`, the T/C runs as follows: under setting [16], 118 % of control; under setting [17], 150 % of control and 160 % of control; (dose: 50.0 mg/kg/injection, schedule: Q01DX009 (ip), vehicle: saline) 150 % of control.

The record behind these values is PubChem BioAssay AID330 (DTP/NCI, 2004).
